Counter-ions that a name gives are not always drawn.
What was measured:
[1] = molecular target: T1, papain (Carica papaya, UniProt P00784); test: chromogenic protease assay, Lineweaver-Burk; format: biochemical; conditions: pH 6.8, 1 mM glutathione, 37 °C, 0.1-5 mM BAPNA
T1 construct: commercial purified papain (Sigma-Aldrich)
T1 sequence (P00784 134-345): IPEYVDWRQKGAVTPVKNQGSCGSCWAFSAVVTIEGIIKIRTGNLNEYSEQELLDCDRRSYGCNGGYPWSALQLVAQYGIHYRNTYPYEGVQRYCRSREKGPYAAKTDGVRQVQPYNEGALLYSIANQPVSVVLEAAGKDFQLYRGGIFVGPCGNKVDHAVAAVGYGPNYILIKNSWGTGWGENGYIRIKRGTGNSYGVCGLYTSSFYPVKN

[2] = molecular target: papain (UniProt P00784); test: enzyme inhibition kinetics (Lineweaver-Burk)

With `N=C(N)NCCC[C@H](NC(=O)c1ccccc1)C(=O)Nc1ccc([N+](=O)[O-])cc1` [BAPNA, Nα-Benzoyl-L-arginine 4-nitroanilide hydrochloride] the “chromogenic protease assay, Lineweaver-Burk” value [1] was “classical protease inhibition assays on purified papain using the chromogenic substrate BAPNA”.
“C14-inhibiting protein-1 (Cip1), wild type (natural protein)” showed a Ki [2] of 3.98 nM.
